Measured values: patent US10738056B2 (Aduro BioTech, Inc., priority 2017, dated 2020)
Like-named read-outs stand apart in the source and are kept apart here.

Columns and labels:
[1] = target: Human cGAS amino acids 155-522 (Homo sapiens (Human), UniProt Q8N884); test: cGAS biochemical activity assay (ATP remaining, Kinase-Glo Max luminescence); conditions: human cGAS 155-522, ATP remaining (Kinase-Glo Max); read-out: cGAS IC50
[2] = tested on: cGAS/STING pathway in THP1 cells; test: THP1 cell-based cGAS/STING pathway activity assay (IRF-3-linked luciferase reporter)
In short: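 THP1 cells carrying an IRF-3-driven luciferase reporter were read across a range of compound concentrations, and IC50 values were derived from these concentration responses; the assay upper limit was 100 μM.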

Chain of Human cGAS amino acids 155-522 (Q8N884 157-522): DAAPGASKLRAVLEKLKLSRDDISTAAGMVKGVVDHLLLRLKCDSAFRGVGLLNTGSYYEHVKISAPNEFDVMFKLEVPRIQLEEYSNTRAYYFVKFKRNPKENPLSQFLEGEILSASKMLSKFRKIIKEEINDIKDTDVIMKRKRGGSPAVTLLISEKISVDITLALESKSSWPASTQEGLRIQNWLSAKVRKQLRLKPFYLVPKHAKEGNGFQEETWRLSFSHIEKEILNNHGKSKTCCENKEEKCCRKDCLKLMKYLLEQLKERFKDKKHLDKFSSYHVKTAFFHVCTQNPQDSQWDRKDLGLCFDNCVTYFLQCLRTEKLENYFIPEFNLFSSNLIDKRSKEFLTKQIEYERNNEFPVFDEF

In the case of `Cc1[nH]c2c(-c3ccccc3)c(C(F)(F)F)nn2c(=O)c1C(=O)Nc1cn[nH]c1` [Compound A1068, 5-methyl-7-oxo-3-phenyl-N-(1H-pyrazol-4-yl)-2-(trifluoromethyl)-4,7-dihydropyrazolo[1,5-a]pyrimidine-6-carboxamide], the IC50 [1] is reported as 20 to 250 µM and the IC50 ([2]; Homo sapiens, THP-1) is reported as greater than 100 µM.

`Cc1[nH]c2c(-c3ccccc3)c(C(F)(F)F)nn2c(=O)c1-c1nc2ccccc2c(=O)[nH]1` [Compound C1019, 2-(5-methyl-7-oxo-3-phenyl-2-(trifluoromethyl)-4,7-dihydropyrazolo[1,5-a]pyrimidin-6-yl)quinazolin-4(3H)-one] was tested, and the IC50 [1] was less than 20 µM and the IC50 ([2]; Homo sapiens, THP-1) was 20 to 100 µM.

With `COc1cccc2oc(-c3c(C(=O)O)[nH]c4c(-c5ccccc5)c(C(F)(F)F)nn4c3=O)nc12` [Compound C1131, 6-(4-methoxybenzo[d]oxazol-2-yl)-7-oxo-3-phenyl-2-(trifluoromethyl)-4,7-dihydropyrazolo[1,5-a]pyrimidine-5-carboxylic acid] the IC50 [1] was less than 20 µM and the IC50 ([2]; Homo sapiens, THP-1) was greater than 100 µM.

With `COc1cccc2nc(-c3c(C)[nH]c4c(-c5ccccc5)c(C(F)(F)F)nn4c3=O)cn12` [Compound C1057, 6-(5-methoxyimidazo[1,2-a]pyridin-2-yl)-5-methyl-3-phenyl-2-(trifluoromethyl)pyrazolo[1,5-a]pyrimidin-7(4H)-one] the IC50 [1] was less than 20 µM and the IC50 ([2]; Homo sapiens, THP-1) was greater than 100 µM.

Compound `Cc1[nH]c2c(-c3ccccc3)c(C(F)(F)F)nn2c(=O)c1-c1nc2c(C)cccc2o1` [Compound C1060, 5-methyl-6-(4-methylbenzo[d]oxazol-2-yl)-3-phenyl-2-(trifluoromethyl)pyrazolo[1,5-a]pyrimidin-7(4H)-one] has an IC50 [1] of less than 20 µM and an IC50 ([2]; Homo sapiens, THP-1) of less than 20 µM.

For `COC[C@@H]1COC(c2c(C)[nH]c3c(-c4ccccc4)c(C(F)(F)F)nn3c2=O)=N1` [Compound C1184, (R)-6-(4-(methoxymethyl)-4,5-dihydrooxazol-2-yl)-5-methyl-3-phenyl-2-(trifluoromethyl)pyrazolo[1,5-a]pyrimidin-7(4H)-one], the IC50 [1] was less than 20 µM and the IC50 ([2]; Homo sapiens, THP-1) was greater than 100 µM.

With `COC(C)(C)c1nnc(-c2c(C)[nH]c3c(-c4ccccc4)c(C(F)(F)F)nn3c2=O)o1` [Compound D1048, 6-(5-(2-methoxypropan-2-yl)-1,3,4-oxadiazol-2-yl)-5-methyl-3-phenyl-2-(trifluoromethyl)pyrazolo[1,5-a]pyrimidin-7(4H)-one] the IC50 [1] was 20 to 250 µM and the IC50 ([2]; Homo sapiens, THP-1) was greater than 100 µM.

With `Cc1[nH]c2c(-c3ccccc3)c(C(F)(F)F)nn2c(=O)c1-c1nc(CO)c(C2CCCCC2)o1` [Compound C1157, 6-(5-cyclohexyl-4-(hydroxymethyl)oxazol-2-yl)-5-methyl-3-phenyl-2-(trifluoromethyl)pyrazolo[1,5-a]pyrimidin-7(4H)-one] the IC50 [1] was less than 20 µM and the IC50 ([2]; Homo sapiens, THP-1) was less than 20 µM.

For `COc1cccc2oc(-c3c(C(=O)NCC(C)(C)O)[nH]c4c(-c5ccccc5)c(C(F)(F)F)nn4c3=O)nc12` [Compound C1219, N-(2-hydroxy-2-methylpropyl)-6-(4-methoxybenzo[d]oxazol-2-yl)-7-oxo-3-phenyl-2-(trifluoromethyl)-4,7-dihydropyrazolo[1,5-a]pyrimidine-5-carboxamide], the IC50 [1] was less than 20 µM and the IC50 ([2]; Homo sapiens, THP-1) was greater than 100 µM.

Work on `COc1cccc2[nH]c(-c3c(C)[nH]c4c(-c5ccccc5)c(C(F)(F)F)nn4c3=O)nc12` [Compound C1018, 6-(4-methoxy-1H-benzo[d]imidazol-2-yl)-5-methyl-3-phenyl-2-(trifluoromethyl)pyrazolo[1,5-a]pyrimidin-7(4H)-one] yielded an IC50 [1] of less than 20 µM and an IC50 ([2]; Homo sapiens, THP-1) greater than 100 µM.

Work on `COc1ccc(NC(=O)c2c(C)[nH]c3c(-c4ccccc4)c(C(F)(F)F)nn3c2=O)nn1` [Compound A1110, N-(6-methoxypyridazin-3-yl)-5-methyl-7-oxo-3-phenyl-2-(trifluoromethyl)-4,7-dihydropyrazolo[1,5-a]pyrimidine-6-carboxamide] yielded an IC50 [1] of less than 20 µM and an IC50 ([2]; Homo sapiens, THP-1) greater than 100 µM.

`Cc1[nH]c2c(-c3ccccc3)c(C(F)(F)F)nn2c(=O)c1C(=O)Nc1ccccc1Cl` [Compound A1033, N-(2-chlorophenyl)-5-methyl-7-oxo-3-phenyl-2-(trifluoromethyl)-4,7-dihydropyrazolo[1,5-a]pyrimidine-6-carboxamide] was tested, and the IC50 [1] was 20 to 250 µM and the IC50 ([2]; Homo sapiens, THP-1) was 20 to 100 µM.

In the case of `CO[C@H]1CCCCC1c1nnc(-c2c(C)[nH]c3c(-c4ccccc4)c(C(F)(F)F)nn3c2=O)o1` (stereo partly shown) [D1046 Iso-1], the IC50 [1] is reported as less than 20 µM and the IC50 ([2]; read-out: THP-1 IC50) is reported as less than 20 µM.

With `Cc1[nH]c2c(-c3ccccc3)c(C#N)nn2c(=O)c1-c1nc2c(N)cccc2o1` [Compound C1223, 6-(4-aminobenzo[d]oxazol-2-yl)-5-methyl-7-oxo-3-phenyl-4,7-dihydropyrazolo[1,5-a]pyrimidine-2-carbonitrile] the IC50 [1] was less than 20 µM and the IC50 ([2]; Homo sapiens, THP-1) was 20 to 100 µM.

For `COc1cccc(NC(=O)c2c(C)[nH]c3c(-c4ccccc4)c(C(F)(F)F)nn3c2=O)n1` [Compound A1064, N-(6-methoxypyridin-2-yl)-5-methyl-7-oxo-3-phenyl-2-(trifluoromethyl)-4,7-dihydropyrazolo[1,5-a]pyrimidine-6-carboxamide], the IC50 [1] was less than 20 µM and the IC50 ([2]; Homo sapiens, THP-1) was 20 to 100 µM.

For `COc1cc(C(N)=O)cc2oc(-c3c(C)[nH]c4c(-c5ccccc5)c(C(F)(F)F)nn4c3=O)nc12` [Compound C1149, 4-methoxy-2-(5-methyl-7-oxo-3-phenyl-2-(trifluoromethyl)-4,7-dihydropyrazolo[1,5-a]pyrimidin-6-yl)benzo[d]oxazole-6-carboxamide], the IC50 [1] was less than 20 µM and the IC50 ([2]; Homo sapiens, THP-1) was 20 to 100 µM.

In the case of `COCc1ccccc1NC(=O)c1c(C)[nH]c2c(-c3ccccc3)c(C(F)(F)F)nn2c1=O` [Compound A1072, N-(2-(methoxymethyl)phenyl)-5-methyl-7-oxo-3-phenyl-2-(trifluoromethyl)-4,7-dihydropyrazolo[1,5-a]pyrimidine-6-carboxamide], the IC50 [1] is reported as 20 to 250 µM and the IC50 ([2]; Homo sapiens, THP-1) is reported as 20 to 100 µM.

`COc1cc(C(C)O)cc2oc(-c3c(C)[nH]c4c(-c5ccccc5)c(C#N)nn4c3=O)nc12` (stereo not shown) [Compound C1240, 6-(6-(1-hydroxyethyl)-4-methoxybenzo[d]oxazol-2-yl)-5-methyl-7-oxo-3-phenyl-4,7-dihydropyrazolo[1,5-a]pyrimidine-2-carbonitrile] was tested, and the IC50 [1] was less than 20 µM and the IC50 ([2]; Homo sapiens, THP-1) was less than 20 µM.

`Cc1[nH]c2c(-c3ccccc3)c(C(F)(F)F)nn2c(=O)c1-c1nnc(C2CCCCO2)o1` (stereo not shown) [Compound D1024, 5-methyl-3-phenyl-6-(5-(tetrahydro-2H-pyran-2-yl)-1,3,4-oxadiazol-2-yl)-2-(trifluoromethyl)pyrazolo[1,5-a]pyrimidin-7(4H)-one] gave an IC50 [1] of less than 20 µM and an IC50 ([2]; Homo sapiens, THP-1) greater than 100 µM.

`COc1cccc2oc(-c3c(C[S+](C)[O-])[nH]c4c(-c5ccccc5)c(C(F)(F)F)nn4c3=O)nc12` (stereo not shown) [Compound C1137, 6-(4-methoxybenzo[d]oxazol-2-yl)-5-((methylsulfinyl)methyl)-3-phenyl-2-(trifluoromethyl)pyrazolo[1,5-a]pyrimidin-7(4H)-one] was tested, and the IC50 [1] was less than 20 µM and the IC50 ([2]; Homo sapiens, THP-1) was greater than 100 µM.

Compound `COc1cccc2oc(-c3c(N4CCOCC4)[nH]c4c(-c5ccccc5)c(C(F)(F)F)nn4c3=O)nc12` [Compound C1258, 6-(4-methoxybenzo[d]oxazol-2-yl)-5-morpholino-3-phenyl-2-(trifluoromethyl)pyrazolo[1,5-a]pyrimidin-7(4H)-one] has an IC50 [1] of less than 20 µM and an IC50 ([2]; Homo sapiens, THP-1) of less than 20 µM.

Compound `CO[C@@H]1CCCC(c2nnc(-c3c(C)[nH]c4c(-c5ccccc5)c(C(F)(F)F)nn4c3=O)o2)C1` (stereo partly shown) [D1021 Iso-2] has an IC50 [1] of less than 20 µM and an IC50 ([2]; read-out: THP-1 IC50) greater than 100 µM.

For `Cc1[nH]c2c(-c3ccccc3)c(C(F)(F)F)nn2c(=O)c1C(=O)Nc1ccn(CCO)n1` [Compound A1118, N-(1-(2-hydroxyethyl)-1H-pyrazol-3-yl)-5-methyl-7-oxo-3-phenyl-2-(trifluoromethyl)-4,7-dihydropyrazolo[1,5-a]pyrimidine-6-carboxamide], the IC50 [1] was 20 to 250 µM and the IC50 ([2]; Homo sapiens, THP-1) was greater than 100 µM.

`COCCOc1cccc2oc(-c3c(C)[nH]c4c(-c5ccccc5)c(C(F)(F)F)nn4c3=O)nc12` [Compound C1041, 6-(4-(2-methoxyethoxy)benzo[d]oxazol-2-yl)-5-methyl-3-phenyl-2-(trifluoromethyl)pyrazolo[1,5-a]pyrimidin-7(4H)-one] gave an IC50 [1] of less than 20 µM and an IC50 ([2]; Homo sapiens, THP-1) of less than 20 µM.

With `Cc1nn2c(=O)c(C(=O)Nc3ccccc3S(C)(=O)=O)c(C)[nH]c2c1-c1ccccc1` [Compound A1106, 2,5-dimethyl-N-(2-(methylsulfonyl)phenyl)-7-oxo-3-phenyl-4,7-dihydropyrazolo[1,5-a]pyrimidine-6-carboxamide] the IC50 [1] was less than 20 µM and the IC50 ([2]; Homo sapiens, THP-1) was greater than 100 µM.

`COc1cccc2oc(-c3c(C)[nH]c4c(-c5ccccc5)c(C)nn4c3=O)nc12` [Compound C1042, 6-(4-methoxybenzo[d]oxazol-2-yl)-2,5-dimethyl-3-phenylpyrazolo[1,5-a]pyrimidin-7(4H)-one] was tested, and the IC50 [1] was less than 20 µM and the IC50 ([2]; Homo sapiens, THP-1) was less than 20 µM.

For `Cc1[nH]c2c(-c3ccccc3)c(C(F)(F)F)nn2c(=O)c1-c1nc2c(F)cccc2o1` [Compound C1076, 6-(4-fluorobenzo[d]oxazol-2-yl)-5-methyl-3-phenyl-2-(trifluoromethyl)pyrazolo[1,5-a]pyrimidin-7(4H)-one], the IC50 [1] was less than 20 µM and the IC50 ([2]; Homo sapiens, THP-1) was less than 20 µM.

For `COc1cccc2oc(-c3c(COCCO)[nH]c4c(-c5ccccc5)c(C(F)(F)F)nn4c3=O)nc12` [Compound C1226, 5-((2-hydroxyethoxy)methyl)-6-(4-methoxybenzo[d]oxazol-2-yl)-3-phenyl-2-(trifluoromethyl)pyrazolo[1,5-a]pyrimidin-7(4H)-one], the IC50 [1] was less than 20 µM and the IC50 ([2]; Homo sapiens, THP-1) was 20 to 100 µM.

Compound `Cc1[nH]c2c(-c3ccccc3)c(C(F)(F)F)nn2c(=O)c1-c1nnc(C2(C(F)(F)F)CC2)o1` [Compound D1038, 5-methyl-3-phenyl-2-(trifluoromethyl)-6-(5-(1-(trifluoromethyl)cyclopropyl)-1,3,4-oxadiazol-2-yl)pyrazolo[1,5-a]pyrimidin-7(4H)-one] has an IC50 [1] of less than 20 µM and an IC50 ([2]; Homo sapiens, THP-1) of less than 20 µM.
